# Measurements from publication PMC7470104, “Discovery of 3,6-disubstituted pyridazines as a novel class of anticancer agents targeting cyclin-dependent kinase 2: synthesis, biological evaluation and in silico insights” (Journal of Enzyme Inhibition and Medicinal Chemistry, 2020).
# Like-named read-outs stand apart in the source and are kept apart here.
# Columns and labels:
# T-47D cells [1] = assay: SRB anti-proliferative assay, T-47D; assay type: cell-based; conditions: Homo sapiens, T47D, 48 h, read-out: IC50 T-47D
# From the text: (§1) MDA-MB-231 cell line is classified as a triple-negative/basal-like cell line, which is hormone (estrogen and progesterone)-receptor negative and HER2 negative, whereas T-47D is considered as hormone-receptor positive and HER2 negative breast cancer cell line.
# (§2) 2. Anti-proliferative activities
# (§3) The three examined human cancer cell lines; T-47D (breast cancer), MDA-MB-231 (breast carcinoma) and SKOV-3 (ovarian cancer), as well as the non-tumorigenic human breast cell line (MCF-10A) have been obtained from American Type Culture Collection (ATCC). The cells were maintained in Dulbecco's modified Eagle's medium (DMEM) supplemented with 10% heat inactivated fetal calf serum (GIBCO), penicillin (100 U/ml) and streptomycin (100 µg/ml) at 37 °C in humidified atmosphere containing 5% CO2. Cells at a concentration of 0.50 x 106 were grown in a 25 cm2 flask in 5 ml of culture medium.
# (§4) The anti-proliferative activity of the tested pyridazines 11a-r was measured in vitro using the Sulfo-Rhodamine-B stain (SRB) assay. Briefly, Cells were inoculated in 96-well microtiter plate (5X104 cells/ well) for 24 h before treatment with the tested pyridazines to allow attachment of cell to the wall of the plate. Tested pyridazines were dissolved in DMSO at 1 mg/ml immediately before use and diluted to the appropriate volume just before addition to the cell culture. Different concentrations of tested pyridazines and staurosporine were added to the cells (three wells were prepared for each individual dose). Cells were incubated with the pyridazines for 48 h at 37°C and in atmosphere of 5% CO2. After 48 h cells were fixed, washed, and stained for 30 min with 0.4% (w/v) SRB dissolved in 1% acetic acid. Unbound dye was removed by four washes with 1% acetic acid, and attached stain was recovered with Tris-EDTA buffer. Color intensity was measured in an ELISA reader. The relation between percent of surviving fraction and drug concentration is plotted to get the survival curve for each cell line. The concentration required for 50% inhibition of cell viability (IC50) was calculated. […]
# MDA-MB-231 cells [2] = assay: SRB anti-proliferative assay, MDA-MB-231; assay type: cell-based; conditions: Homo sapiens, read-out: IC50 MDA-MB-231
# From the text: as §1, §2, §3, §4
# CDK2/CyclinA2 = CDK2/CyclinA2 (Homo sapiens, UniProt P24941); assay: In vitro CDK2 kinase assay (CDK2/CyclinA2 Kinase Enzyme System)
# From the text: CDK Kinase Inhibitory Activity
# MCF-10A cells = assay: MTT cytotoxicity towards non-tumorigenic breast cells; assay type: cell-based, human; conditions: for IC50: read-out: IC50 MCF-10A
# T-47D cells [3] = assay: Cell cycle analysis by flow cytometry, T-47D; assay type: cell-based, human; conditions: treated at IC50, 24 h, vs untreated control
# From the text: (§5) In this study, the efficient anti-proliferative activities of target pyridazines 11a-r towards breast cancer cell lines promoted us to explore and get insights into the plausible cellular mechanisms for these small molecules. To this end, we decided to determine if the target pyridazines exerted their cytotoxic activity through alteration in cell cycle progression and/or induction of apoptosis in both breast cancer T-47D and MDA-MB-231 cells. As a reliable tool, the flow cytometric analysis was utilised to inspect the cell cycle distribution after treatment of T-47D and MDA-MB-231 cells with IC50s of pyridazines 11l and 11m; […]
# as §2
# as §3, with “medium. […]” for “medium.”
# Tested pyridazines were dissolved in […]
# The relation between percent of surviving fraction and drug concentration is plotted to get the survival curve for each cell line. The concentration required for 50% inhibition of cell viability (IC50) was calculated.
# Breast cancer T-47D and MDA-MB-231 cells were treated with pyridazines 11l and 11m for 24 h (at their IC50 concentration), and then cells were washed twice with ice-cold phosphate buffered saline (PBS). Subsequently, the treated cells were collected by centrifugation, fixed in ice-cold 70% (v/v) ethanol, washed with PBS, re-suspended with 100 μg/mL RNase, stained with 40 μg/mL PI, and analyzed by flow cytometry using FACS Calibur (Becton Dickinson, BD, Franklin Lakes, NJ, USA). The cell cycle distributions were calculated using CellQuest software 5.1 (Becton Dickinson).
# MDA-MB-231 cells [4] = assay: Cell cycle analysis by flow cytometry, MDA-MB-231; assay type: cell-based, human; conditions: MDA-MB-231, treated at IC50, 24 h, vs untreated control
# From the text: as §5, §2, §3
# The anti-proliferative activity of the tested pyridazines 11a-r was measured in vitro using the Sulfo-Rhodamine-B stain (SRB) assay. Briefly, Cells were inoculated in 96-well microtiter plate (5X104 cells/ well) for 24 h before treatment with the tested pyridazines to allow attachment of cell to the wall of the plate. Tested pyridazines were dissolved in DMSO at 1 mg/ml immediately before use and diluted to the appropriate volume just before addition to the cell culture. Different concentrations of tested pyridazines and staurosporine were added to the cells (three wells were prepared for each individual dose). Cells were incubated with the pyridazines for 48 h at 37°C and in atmosphere of 5% CO2. After 48 h cells were fixed, washed, and stained for 30 min with 0.4% (w/v) SRB dissolved in 1% acetic acid. Unbound dye was removed by four washes with 1% acetic acid, and attached stain was recovered with Tris-EDTA buffer. Color intensity was measured in an ELISA reader. The relation between percent of surviving fraction and drug concentration is plotted to get the survival curve for each cell line. The concentration required for 50% inhibition of cell viability (IC50) was calculated.
# Breast cancer T-47D and MDA-MB-231 cells were treated with pyridazines 11l and 11m for 24 h (at their IC50 concentration), and then cells were washed twice with ice-cold phosphate buffered saline (PBS). […]
# T-47D cells [5] = assay: Annexin V-FITC/PI apoptosis assay, T-47D; assay type: cell-based, human; conditions: treated at IC50, 48 h; for Annexin V+ cells, late apoptotic phase (upper right quadrant): control 0.19%; for Annexin V+ cells, early apoptotic phase (lower right quadrant): control […]
# Description: (§6) Both T-47D and MDA-MB-231 cells were treated with pyridazines 11l and 11m at their IC50s for 48 h. The obtained results have been depicted in Figures 4–6.
# (§7) 4. Annexin V-FITC Apoptosis Assay
# (§8) Phosphatidylserine externalization was assayed using Annexin V-FITC/PI apoptosis detection kit (BD Biosciences, USA) according to the manufacturer’s instructions. Breast cancer T-47D and MDA-MB-231 cells were cultured to a monolayer then treated with pyridazines 11l and 11m at their IC50 concentration. Briefly, cells were then harvested via trypsinization, and rinsed twice in PBS followed by binding buffer. Moreover, cells were re-suspended in 100 μL of binding buffer with the addition of 1 μL of FITC-Annexin V followed by an incubation period of 30 min at 4 °C. Cells were then rinsed in binding buffer and resuspended in 150 μL of binding buffer with the addition of 1 μL of DAPI (1 μg/μL in PBS). Cells were then analyzed using the flow cytometer BD FACS Canto II and the results were interpreted with FlowJo7.6.4 software (Tree Star, Ashland, OR, USA). […]
# (§9) Data are presented as means ± S.D. Individual groups were compared using the two-tailed independent Student’s t-test. Multiple group comparisons were carried out using one-way analysis of variance (ANOVA) followed by the Tukey–Kramer test for post-hoc analysis. Statistical significance was accepted at a level of p < 0.05. All statistical analyses were performed using GraphPad InStat software, version 3.05 (GraphPad Software, Inc., La Jolla, CA, USA). Graphs were sketched using GraphPad Prism software, version 5.00 (GraphPad Software, Inc., La Jolla, CA, USA).
# MDA-MB-231 cells [6] = assay: Annexin V-FITC/PI apoptosis assay, MDA-MB-231; assay type: cell-based, human; conditions: MDA-MB-231, treated at IC50, 48 h; for Annexin V+ cells, late apoptotic phase (upper right quadrant): control 0.24%; for Annexin V+ cells, early apoptotic phase (lower right quadrant): control 0.56%
# Description: as §6, §7, §8, §9
# [7] = test system: human colon cancer HT-29 cell line; parameters: method as in PMID 23307426; conditions: in words; cited from earlier work
# VEGFR-2 = test system: VEGFR-2; parameters: method as in PMID 31852269; conditions: in words; cited from earlier work
# [8] = SRB assay, breast cancer T-47D, mean ± SD of three experiments
# [9] = SRB assay, 48 h, breast cancer MDA-MB-231, mean ± SD of three experiments
smiles,measurement,setting,value
CCCCNc1nnc(C(=O)NC2C3CC4CC(C3)CC2C4)cc1C(F)(F)F (stereo not shown) [11b],IC50,T-47D cells [1]; [8],1370 ± 40 nM
same,melting point,,110 to 111 °C
O=C(NC1C2CC3CC(C2)CC1C3)c1cc(C(F)(F)F)c(N2CCOCC2)nn1 (stereo not shown) [11d],IC50,MDA-MB-231 cells [2]; [9],2180 ± 70 nM
same,melting point,,177 to 178 °C
O=C(NC1C2CC3CC(C2)CC1C3)c1cc(C(F)(F)F)c(NCc2ccccc2C(F)(F)F)nn1 (stereo not shown) [11e],IC50,T-47D cells [1]; [8],2620 ± 80 nM
same,IC50,CDK2/CyclinA2,151 ± 6.16 nM
CC(C)(C)NC(=O)c1cc(C(F)(F)F)c(NC2CCCC2)nn1 [11f],IC50,T-47D cells [1]; [8],1940 ± 60 nM
same,melting point,,62 to 63 °C
CC(C)(C)NC(=O)c1cc(C(F)(F)F)c(N2CCOCC2)nn1 [11g],melting point,,121 to 122 °C
CC(C)(C)NC(=O)c1cc(C(F)(F)F)c(NCc2ccccc2C(F)(F)F)nn1 [11h],IC50,T-47D cells [1]; [8],1600 ± 50 nM
same,IC50,MDA-MB-231 cells [2]; [9],2440 ± 80 nM
same,melting point,,132 to 133 °C
same,IC50,CDK2/CyclinA2,43.8 ± 1.79 nM
CCCCNC(=O)c1cc(C(F)(F)F)c(N2CCOCC2)nn1 [11i],IC50,T-47D cells [1]; [8],440 ± 10 nM
O=C(NCC1CCOCC1)c1cc(C(F)(F)F)c(NCC2CC2)nn1 [11l],IC50,T-47D cells [1]; [8],1570 ± 50 nM
same,IC50,MDA-MB-231 cells [2]; [9],1300 ± 40 nM
same,Mean tumour selectivity index (S. I.),MCF-10A cells; IC50 for MCF-10A / IC50 average for (T-47D and MDA-MB-231),13.7
same,IC50,"MCF-10A cells; MTT assay, non-tumorigenic human breast MCF-10A cells",19600 ± 380 nM
same,Increase in sub-G1 phase,T-47D cells [3],13.8 fold
same,Rise in cell population of G2/M phase,T-47D cells [3],2.7 fold
same,Increase in cell population of G2/M phase,MDA-MB-231 cells [4],4.1 fold
same,Increase in sub-G1 phase,MDA-MB-231 cells [4],18.9 fold
same,Increase in Annexin V+ apoptotic cells (UR + LR) with respect to untreated control,T-47D cells [5],about 33 fold
same,"Annexin V+ cells, late apoptotic phase (upper right quadrant)",T-47D cells [5],27.2%
same,"Annexin V+ cells, early apoptotic phase (lower right quadrant)",T-47D cells [5],6.39%
same,"Annexin V+ cells, late apoptotic phase (upper right quadrant)",MDA-MB-231 cells [6],23.60%
same,"Annexin V+ cells, early apoptotic phase (lower right quadrant)",MDA-MB-231 cells [6],3.38%
same,IC50,CDK2/CyclinA2,55.6 ± 2.27 nM
O=C(NCC1CCOCC1)c1cc(C(F)(F)F)c(N2CCOCC2)nn1 [11m],IC50,T-47D cells [1],430 ± 10 nM
same,IC50,"MDA-MB-231 cells [2]; MDA-MB-231, 48 h",990 ± 30 nM
same,IC50,"MCF-10A cells; Homo sapiens, MCF-10A",11400 ± 220 nM
same,Increase in sub-G1 phase,T-47D cells [3],9.5 fold
same,Rise in cell population of G2/M phase,T-47D cells [3],2.5 fold
same,Increase in cell population of G2/M phase,MDA-MB-231 cells [4],3.8 fold
same,Increase in sub-G1 phase,MDA-MB-231 cells [4],15.2 fold
same,Increase in Annexin V+ apoptotic cells (UR + LR) with respect to untreated control,T-47D cells [5],~21 fold
same,"Annexin V+ cells, late apoptotic phase (upper right quadrant)",T-47D cells [5],10.34%
same,"Annexin V+ cells, early apoptotic phase (lower right quadrant)",T-47D cells [5],11.36%
same,"Annexin V+ cells, late apoptotic phase (upper right quadrant)",MDA-MB-231 cells [6],15.56%
same,"Annexin V+ cells, early apoptotic phase (lower right quadrant)",MDA-MB-231 cells [6],8.19%
O=C(NCc1ccccc1C(F)(F)F)c1cc(C(F)(F)F)c(NCCO)nn1 [11n],IC50,MDA-MB-231 cells [2]; [9],2940 ± 90 nM
CCOC(=O)c1ccc(-c2ccc(N(C)C)nn2)cc1 [III],Cytotoxic activity towards HT-29,[7],excellent cytotoxic activity
COc1ccc(Nc2ccc(NC(=O)Nc3ccc(Cl)c(C(F)(F)F)c3)cc2)nn1 [IV],IC50 VEGFR-2,VEGFR-2,nanomolar range
